Data taken from the supplement of paper PMC10883282.

Tests used:
Assay in all cases: relative viability vs DMSO control (72 h) (fraction); higher = more viable cells
[1] = test system: A204
Procedure, shortened: (§1)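 Serially diluted compound, 2.5 µl from source plates spanning 10 mM to 0.0002 mM, was added 24 h after sarcoma cell lines were seeded in 384-well plates at densities targeting 80–90% confluence. Plates then sat 72 h at 37 °C, 5% CO2, with 0.1% DMSO vehicle and a 5 µM positive control. Relative viability came from ATPLite as percent growth, averaged over up to triplicate wells, and was rescaled with 1 as full and 0 as none.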

[2] = test system: SW982
Procedure, shortened: as §1

[3] = test system: SW1353
Procedure, shortened: as §1

[4] = test system: G401
Procedure, shortened: as §1

[5] = test system: SW872
Procedure, shortened: as §1

[6] = test system: SK-LMS-1
Procedure, shortened: as §1

[7] = test system: SK-ES-1
Procedure, shortened: as §1

[8] = test system: MES-SA
Procedure, shortened: as §1

[9] = test system: SYO-1
Procedure, shortened: as §1

[10] = test system: KHOS-240S
Procedure, shortened: as §1

[11] = test system: SW684
Procedure, shortened: as §1

[12] = test system: HS729
Procedure, shortened: as §1

COc1cc(Nc2ncc(F)c(Nc3ccc4c(n3)N(COP(=O)(O)O)C(=O)C(C)(C)O4)n2)cc(OC)c1OC [Fostamatinib]
Details | relative viability
[1], 0.00017 µM | 1.07
[1], 0.00051 µM | 1.08
[1], 0.00152 µM | 1.07
[1], 0.00457 µM | 1.07
[1], 0.01372 µM | 1.07
[1], 0.04115 µM | 1.02
[1], 0.1235 µM | 0.954
[1], 0.3704 µM | 0.763
[1], 1.111 µM | 0.494
[1], 3.333 µM | 0.236
[1], 10 µM | 0.07
[2], 0.00017 µM | 1.05
[2], 0.00051 µM | 1.05
[2], 0.00152 µM | 1.04
[2], 0.00457 µM | 1.06
[2], 0.01372 µM | 1.053
[2], 0.04115 µM | 1.02
[2], 0.1235 µM | 0.822
[2], 0.3704 µM | 0.66
[2], 1.111 µM | 0.507
[2], 3.333 µM | 0.216
[2], 10 µM | 0.128
[3], 0.00017 µM | 0.996
[3], 0.00051 µM | 0.997
[3], 0.00152 µM | 0.997
[3], 0.00457 µM | 1.01
[3], 0.01372 µM | 0.9999
[3], 0.04115 µM | 0.965
[3], 0.1235 µM | 0.8997
[3], 0.3704 µM | 0.773
[3], 1.111 µM | 0.6
[3], 3.333 µM | 0.296
[3], 10 µM | 0.256
[4], 0.00017 µM | 0.9887
[4], 0.00051 µM | 1.01
[4], 0.00152 µM | 1.03
[4], 0.00457 µM | 1.07
[4], 0.01372 µM | 1.004
[4], 0.04115 µM | 1.05
[4], 0.1235 µM | 0.986
[4], 0.3704 µM | 0.962
[4], 1.111 µM | 0.75
[4], 3.333 µM | 0.212
[4], 10 µM | 0.0346
[5], 0.00017 µM | 1.09
[5], 0.00051 µM | 1.07
[5], 0.00152 µM | 1.08
[5], 0.00457 µM | 1.09
[5], 0.01372 µM | 1.08
[5], 0.04115 µM | 1.05
[5], 0.1235 µM | 0.977
[5], 0.3704 µM | 0.795
[5], 1.111 µM | 0.617
[5], 3.333 µM | 0.267
[5], 10 µM | 0.202
[6], 0.00017 µM | 1.06
[6], 0.00051 µM | 1.03
[6], 0.00152 µM | 1.05
[6], 0.00457 µM | 1.05
[6], 0.01372 µM | 1.03
[6], 0.04115 µM | 1.029
[6], 0.1235 µM | 0.897
[6], 0.3704 µM | 0.819
[6], 1.111 µM | 0.769
[6], 3.333 µM | 0.618
[6], 10 µM | 0.403
[7], 0.00017 µM | 1.01
[7], 0.00051 µM | 1.04
[7], 0.00152 µM | 1.03
[7], 0.00457 µM | 1.049
[7], 0.01372 µM | 1.01
[7], 0.04115 µM | 0.986
[7], 0.1235 µM | 0.813
[7], 0.3704 µM | 0.602
[7], 1.111 µM | 0.831
[7], 3.333 µM | 0.292
[7], 10 µM | 0.0769
[8], 0.00017 µM | 0.904
[8], 0.00051 µM | 0.94
[8], 0.00152 µM | 0.932
[8], 0.00457 µM | 0.921
[8], 0.01372 µM | 0.943
[8], 0.04115 µM | 0.931
[8], 0.1235 µM | 0.853
[8], 0.3704 µM | 0.768
[8], 1.111 µM | 0.861
[8], 3.333 µM | 0.332
[8], 10 µM | 0.043
[9], 0.00017 µM | 0.964
[9], 0.00051 µM | 0.953
[9], 0.00152 µM | 0.969
[9], 0.00457 µM | 0.958
[9], 0.01372 µM | 0.966
[9], 0.04115 µM | 0.922
[9], 0.1235 µM | 0.912
[9], 0.3704 µM | 0.656
[9], 1.111 µM | 0.379
[9], 3.333 µM | 0.22
[9], 10 µM | 0.167
[10], 0.00017 µM | 1.08
[10], 0.00051 µM | 1.08
[10], 0.00152 µM | 1.08
[10], 0.00457 µM | 1.08
[10], 0.01372 µM | 1.07
[10], 0.04115 µM | 1.07
[10], 0.1235 µM | 1.01
[10], 0.3704 µM | 0.892
[10], 1.111 µM | 0.559
[10], 3.333 µM | 0.196
[10], 10 µM | 0.0301
[11], 0.00017 µM | 1.14
[11], 0.00051 µM | 1.17
[11], 0.00152 µM | 1.15
[11], 0.00457 µM | 1.17
[11], 0.01372 µM | 1.13
[11], 0.04115 µM | 1.18
[11], 0.1235 µM | 1.09
[11], 0.3704 µM | 1.03
[11], 1.111 µM | 0.877
[11], 3.333 µM | 0.618
[11], 10 µM | 0.481
[12], 0.00017 µM | 0.913
[12], 0.00051 µM | 0.952
[12], 0.00152 µM | 0.938
[12], 0.00457 µM | 0.961
[12], 0.01372 µM | 0.982
[12], 0.04115 µM | 0.914
[12], 0.1235 µM | 0.845
[12], 0.3704 µM | 0.724
[12], 1.111 µM | 0.726
[12], 3.333 µM | 0.519
[12], 10 µM | 0.586
